Measured values: patent US8557800B2, “Sphingosine kinase inhibitors” (Apogee Biotechnology Corporation, priority 2005, dated 2013)
“And” between values parts separate entries of the source, which are not always exact repeats. Equal values may be shown once.

Columns and labels:
recombinant human SK = experiment: Inhibition of recombinant human SK, LC/MS/MS assay; format: biochemical; conditions: 6 μg/ml compound
Procedure, shortened: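 Enzyme incubated with unlabeled sphingosine and ATP (1 mM, as in the radiometric format) for 30 min, then stopped and extracted with acetonitrile. S1P quantified by C8 reverse-phase HPLC–MS/MS against C17 sphingosine and C17 S1P internal standards using calibration curves.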

[1] = test system: retinal vascular permeability in diabetic rats; experiment: Diabetic retinopathy, streptozotocin rats; format: in vivo, rat; conditions: 25 or 75 mg/kg ip 5 days per week, Day 45 to Day 87
Description: Male Sprague-Dawley rats weighing 150-175 g were used. Diabetes was produced by intraperitoneal injection of streptozotocin (65 mg/kg in citrate buffer) after overnight fasting. Sham-injected non-diabetic animals were also carried as controls. Blood glucose was measured three days post-injection and animals with blood glucose over 250 mg/dL were used as diabetic rats for the study. Blood glucose levels and body weights were monitored weekly throughout the study. On Day 45, retinal vascular permeability was measured in a group of control and diabetic rats (Antonetti et al., 1998, Diabetes 47: 1953, Barber et al., 2005, Invest Ophthalmol Vis Sci 46: 2210). […] Sections were dewaxed and viewed with an Olympus OM-2 fluorescence microscope fitted with a Sony CLD video camera. Fluorescence intensities of digital images were measured using Leica Confocal Software (Version 2.61, build 1538, LCS Lite, 2004). The average retinal intensity for each eye was then normalized to non-injected controls analyzed in the same manner and to the plasma fluorescence of the animal. Through serial sectioning of the eye, this technique enables quantification of varied vascular permeability in the retina (Antonetti et al., 1998, Diabetes 47: 1953, Barber et al., 2005, Ibid.). […]

HT-29 (colon) = experiment: Human tumor cell line panel, sulforhodamine B; format: cell-based; conditions: 48 hours, mean ± sd
[2] = test system: Cox-2 activity in human endothelial cells; experiment: TNFα-induced PGE2 production, ELISA; format: cell-based; conditions: 100 ng of TNFα/mL 18 hours
Description: (§1) FIG. 6. Inhibition of TNFα-induced Cox-2 activity by Compound 62. Rat IEC6 cells (Panel A) or human endothelial cells (Panel B) were incubated for 18 hours with dimethylsulfoxide (DMSO) as a solvent control, or 100 ng of TNFα/mL in the presence of DMSO or […] of Compound 62. Levels of PGE2 secreted into the medium were quantified by ELISA. Values represent the mean±sd for triplicate samples in a typical experiment.
(§2) To determine the effects of the SK inhibitors on Cox-2 activity, an ELISA assay was used to measure PGE2 production by IEC6 rat intestinal epithelial cells and human endothelial cells treated with TNFα.

[3] = test system: Cox-2 activity in IEC6 rat intestinal epithelial cells; experiment: TNFα-induced PGE2 production, ELISA; format: cell-based; conditions: 100 ng of TNFα/mL 18 hours
Description: as §1, §2

[4] = test system: MCF-7 human breast adenocarcinoma cells; experiment: Cytotoxicity, SRB binding assay; format: cell-based; conditions: MCF7, inhibition of cell proliferation, 48 h, read-out: MCF-7 IC50
Procedure, shortened: (§3)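 Cells exposed to varying compound doses for 48 h, then survival measured by sulforhodamine B staining. IC50 is the concentration giving 50% proliferation inhibition, in μM, as mean±sd of replicate trials.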

[5] = test system: MCF-10A non-transformed human breast epithelial cells; experiment: Cytotoxicity, SRB binding assay; format: cell-based; conditions: inhibition of cell proliferation, 48 h, read-out: MCF-10A IC50
Procedure, shortened: as §3

A-498 (kidney) = experiment: Human tumor cell line panel, sulforhodamine B; format: cell-based; conditions: A498, 48 hours, mean ± sd
physchem = conditions: aqueous with cosolvent or surfactant or cyclodextrin
NFκB = experiment: TNFα-induced NFκB reporter cell line; format: cell-based; conditions: fibroblasts, TNFα 6 hours
Description: FIG. 5. Inhibition of TNFα-induced activation of NFκB by Compound 62. Fibroblasts transfected with a TNFα-responsive promoter linked to luciferase were treated with the indicated concentrations of Compound 62 and then treated with TNFα for 6 hours. The amount of luciferase expressed by the cells was then measured by luminescence. Values represent the mean±sd luciferase activity in triplicate samples in a typical experiment.
The excellent aqueous solubility of Compound 62 allowed it to be evaluated in an NFκB reporter cell line (FIG. 5). Fibroblasts transfected with an NFκB response element linked to luciferase produce high levels of luciferase upon exposure to TNFα.

O=C(NCc1ccncc1)C12CC3CC(C1)CC(c1ccc(Cl)cc1)(C3)C2 [Compound 62, 3-(4-Chloro-phenyl)-adamantane-1-carboxylic acid (pyridin-4-ylmethyl)-amide]
Recombinant SK (% inhibition) (recombinant human SK): 13% | FITC-BSA leakage into the retina vs untreated diabetic rats [1]: substantially reduced | IC50 (HT-29 (colon)): 48.1 ± 7.6 µM | induction of Cox-2 activity by TNFα (PGE2 production) [2]: strongly suppressed | induction of Cox-2 activity by TNFα (PGE2 production) [3]: strongly suppressed | IC50 [4]: 17 µM | IC50 [5]: 21 µM | IC50 (A-498 (kidney)): 12.2 ± 6 µM | solubility (physchem): ≥ 15000 µg/mL and 30000 µM to 40000 µM | activation of NFκB by TNFα (luciferase) (NFκB): dose-dependently suppressed
